# Where a name gives a salt, the structure may show the parent alone.
# Tests used:
# activated human C1 = molecular target: T1, activated human C1 (Homo sapiens, UniProt P09871); experiment: Test Code 026 (C1 inhibitor): protection of fluid phase human C2 from activated human C1 in the presence of C4, serial dilution assay; assay type: biochemical; details: activity in wells, twofold serial dilutions; higher well number indicates higher activity
# T1 construct: fluid-phase C2 destruction in presence of C4
# Experimental: (§1) An active inhibitor protects C2 from C1 and C4; (ii) Test Code 035 (C3-C9 inhibitor)--This test determines the ability of the late components of human complement (C3-C9) to lyse EAC 142 in the presence of appropriate dilutions of the test compound. An active inhibitor protects EAC 142 from lysis by human C3-C9; and (iii) Cap 50 Test--Here, appropriate amounts of the test compound are added to a pool of guinea pig serum in vitro, after which the undiluted serum capillary tube assay of U.S. Pat. No. 3,876,376 is run. The concentration of compound inhibiting 50% is reported.
# (§2) **Activity in wells, a serial dilution assay; higher well number indicate
# (§3) higher activitiy. The serial dilutions are twofold.
# [1] = tested on: late components of human complement (C3-C9); experiment: Test Code 035 (C3-C9 inhibitor): protection of EAC 142 from lysis by late components of human complement; assay type: biochemical; details: activity in wells, twofold serial dilutions; higher well number indicates higher activity
# Experimental: as §1, §2, §3
# T1 sequence (P09871 16-688): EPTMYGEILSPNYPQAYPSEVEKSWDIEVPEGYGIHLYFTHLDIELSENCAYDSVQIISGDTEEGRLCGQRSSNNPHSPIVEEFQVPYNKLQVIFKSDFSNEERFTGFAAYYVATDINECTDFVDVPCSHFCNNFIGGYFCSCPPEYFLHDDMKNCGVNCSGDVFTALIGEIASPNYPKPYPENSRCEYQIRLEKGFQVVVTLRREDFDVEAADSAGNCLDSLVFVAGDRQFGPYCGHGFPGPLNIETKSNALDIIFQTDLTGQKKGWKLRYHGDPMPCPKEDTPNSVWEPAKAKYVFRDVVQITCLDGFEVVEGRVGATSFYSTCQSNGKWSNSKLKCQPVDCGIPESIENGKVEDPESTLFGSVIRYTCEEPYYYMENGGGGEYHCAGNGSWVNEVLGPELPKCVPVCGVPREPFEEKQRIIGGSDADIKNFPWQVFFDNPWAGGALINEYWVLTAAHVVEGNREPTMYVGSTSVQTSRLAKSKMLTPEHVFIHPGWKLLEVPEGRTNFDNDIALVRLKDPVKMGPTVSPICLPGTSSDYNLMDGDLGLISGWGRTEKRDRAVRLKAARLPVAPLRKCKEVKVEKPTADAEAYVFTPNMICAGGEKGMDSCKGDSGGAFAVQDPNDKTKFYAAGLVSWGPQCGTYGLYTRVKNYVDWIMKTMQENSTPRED
# T1 sequence (P00736 18-705 partner): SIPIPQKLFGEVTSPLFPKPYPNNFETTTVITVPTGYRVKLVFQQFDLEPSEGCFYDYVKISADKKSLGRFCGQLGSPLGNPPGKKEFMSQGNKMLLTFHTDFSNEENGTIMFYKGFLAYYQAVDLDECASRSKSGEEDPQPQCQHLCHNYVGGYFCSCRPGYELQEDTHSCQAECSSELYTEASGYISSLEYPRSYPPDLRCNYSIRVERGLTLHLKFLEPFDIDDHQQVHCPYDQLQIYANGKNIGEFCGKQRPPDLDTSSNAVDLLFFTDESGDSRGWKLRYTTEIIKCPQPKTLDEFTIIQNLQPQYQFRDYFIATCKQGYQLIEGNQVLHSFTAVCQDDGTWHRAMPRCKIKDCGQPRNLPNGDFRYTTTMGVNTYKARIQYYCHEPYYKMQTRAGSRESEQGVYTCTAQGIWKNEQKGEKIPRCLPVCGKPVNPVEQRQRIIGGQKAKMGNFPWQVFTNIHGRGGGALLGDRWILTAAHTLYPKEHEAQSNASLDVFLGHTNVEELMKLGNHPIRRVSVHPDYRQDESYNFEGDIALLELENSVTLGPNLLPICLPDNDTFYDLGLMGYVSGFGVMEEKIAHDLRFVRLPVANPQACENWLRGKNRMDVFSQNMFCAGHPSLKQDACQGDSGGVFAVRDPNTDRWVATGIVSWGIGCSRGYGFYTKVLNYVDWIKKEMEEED
# T1 sequence (P02745 23-245 partner): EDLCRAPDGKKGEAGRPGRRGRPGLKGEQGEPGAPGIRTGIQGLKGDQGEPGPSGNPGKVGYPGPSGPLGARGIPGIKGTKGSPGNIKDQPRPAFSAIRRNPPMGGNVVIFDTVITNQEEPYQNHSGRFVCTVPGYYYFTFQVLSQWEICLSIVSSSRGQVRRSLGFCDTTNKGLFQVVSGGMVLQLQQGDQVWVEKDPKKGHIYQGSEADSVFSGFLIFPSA
# T1 sequence (P02746 28-253 partner): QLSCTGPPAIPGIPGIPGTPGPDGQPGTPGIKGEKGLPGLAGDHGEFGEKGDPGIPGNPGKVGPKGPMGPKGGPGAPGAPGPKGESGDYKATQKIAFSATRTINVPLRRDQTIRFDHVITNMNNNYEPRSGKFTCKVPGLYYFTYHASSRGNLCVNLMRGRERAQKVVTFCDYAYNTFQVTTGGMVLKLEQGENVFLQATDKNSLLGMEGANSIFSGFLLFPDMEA
# T1 sequence (P02747 29-245 partner): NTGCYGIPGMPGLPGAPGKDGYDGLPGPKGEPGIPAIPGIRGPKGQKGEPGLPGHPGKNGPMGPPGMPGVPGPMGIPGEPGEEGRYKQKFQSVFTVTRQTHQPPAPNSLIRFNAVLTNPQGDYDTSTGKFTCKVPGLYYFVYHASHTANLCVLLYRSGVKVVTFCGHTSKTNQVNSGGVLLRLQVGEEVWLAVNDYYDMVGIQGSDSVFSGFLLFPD
Cl 026 Wells (activated human C1),SMILES,C-Late 035 Wells [1]
4 Wells,"O=S(=O)(O)OC[C@H]1O[C@@H](Sc2ccc(Oc3ccc(S[C@@H]4O[C@H](COS(=O)(=O)O)[C@@H](OS(=O)(=O)O)[C@H](OS(=O)(=O)O)[C@H]4OS(=O)(=O)O)cc3)cc2)[C@H](OS(=O)(=O)O)[C@@H](OS(=O)(=O)O)[C@@H]1OS(=O)(=O)O [Oxydi-p-phenylene bis-[1-thio-β-D-glucopyranoside], octakis(H-sulfate), octasodium salt]",–
5 Wells,"O=C(O)[C@H]1O[C@@H](Sc2cccc(S[C@@H]3O[C@H](C(=O)O)[C@@H](OS(=O)(=O)O)[C@H](OS(=O)(=O)O)[C@H]3OS(=O)(=O)O)c2)[C@H](OS(=O)(=O)O)[C@@H](OS(=O)(=O)O)[C@@H]1OS(=O)(=O)O [1,3-Bis[β-D-glucopyranosiduronic acid-1-thio]-phenylene, hexakis(H-sulfate), octasodium salt]",–
5 Wells,"CC(=O)N[C@@H]1[C@@H](OS(=O)(=O)O)[C@H](OS(=O)(=O)O)[C@@H](COS(=O)(=O)O)O[C@H]1Sc1cccc(S[C@@H]2O[C@H](COS(=O)(=O)O)[C@@H](OS(=O)(=O)O)[C@H](OS(=O)(=O)O)[C@H]2NC(C)=O)c1 [1,3-Bis-[β-D-(2-acetylamino)-glucopyranosyl-1-thio]-phenylene, hexakis(H-sulfate), hexasodium salt]",1 Wells
